# According to patent EP0263202A1, “Inhibition of viral protease activity by peptide halomethyl ketones” (priority 1986, dated 1988):
# Residues, ends and D or L forms follow the SMILES beside them.
# How the values were obtained:
# rhinovirus type 1A = test: plaque inhibition assay; format: cell-based, Human rhinovirus type 1A; settings: HeLa cells, concentration at which activity was noted
# Procedure: (§1) One assay, known as a viral cleavage assay, involves comparison of patterns of protein synthesis (as visualized by incorporation of labeled amino acids) in virus-infected HeLa cells grown in the presence and absence of a selected test compound. A second assay, known as a plaque inhibition assay, involves an assessment of the effects of test compounds upon the infectivity of virus in agar-overlaid cell cultures. Toxic effects of a test compound, if any, will also be observed during the incubation period of the plaque inhibition assay. Both assays are described in greater detail below.
# In this assay, cultured HeLa cells were grown to confluency in 60 mm plastic petri dishes. Each culture was then infected with approximately 300 plaque-forming units of virus. Human rhinovirus type 1A was used in the test reported below. The virus employed in this experiment was allowed to absorb to the cells for 30 minutes at 34.5°.
# The compound tested was dissolved in ethanol at a concentration 100 times greater than the highest concentration to be tested. The resulting solution was then diluted 1:100 into a solution of McCoy's medium containing 5% heat-inactivated fetal calf serum and 0.38% agar. Two-fold dilutions were then made into agar medium. […]
# human HeLa-O cells = format: cell-based
# Procedure: as §1
# When plaques in control cultures were large enough to be observed, yet still relatively discrete, all cultures were stained with 1% crystal violet. Plaques appeared as clear areas in a deep purple field of uninfected cells.
# subtilisin BPNʹ = settings: ranking among a series of peptide chloromethyl ketones; cited from earlier work
compound,measurement,setting,value
"CC(C)C[C@H](NC(=O)[C@H](CC(C)C)NC(=O)CNC(=O)[C@H](Cc1ccccc1)NC(=O)OCc1ccccc1)C(=O)CCl [Z-Phe-Gly-Leu-LeuCH₂Cl, N-carbobenzoxy-L-phenylalanyl-L-glycyl-L-leucyl-L-leucine chloromethyl ketone] (HELM PEPTIDE1{[O=C(OCc1ccccc1)[*:2]].F.G.L.L.[ClC[*:1]]}$$$$V2.0)","Antiviral activity, as scored by 90% plaque reduction",rhinovirus type 1A,1 µg/mL
same,cytotoxicity first detected at a concentration,human HeLa-O cells,about 15 µg/mL
acetyl-L-phenyl-alanyl-L-glycyl-L-alanyl-L-leucyl chloromethyl ketone (FGAL; HELM PEPTIDE1{[ac].F.G.A.L.[ClC[*:1]]}$$$$V2.0; SMILES CC(=O)N[C@@H](Cc1ccccc1)C(=O)NCC(=O)N[C@@H](C)C(=O)N[C@@H](CC(C)C)C(=O)CCl) [Ac-Phe-Gly-Ala-LeuCH₂Cl],inhibition of subtilisin BPNʹ,subtilisin BPNʹ,fastest inhibitor
